In patent US20140113898A1, “BISARYLSULFONE AND DIALKYLARYLSULFONE COMPOUNDS AS CALCIUM CHANNEL BLOCKERS” (Zalicus Pharmaceuticals Ltd., priority 2010, published 2014):
Read-outs that look alike come from different tables or passages of the source.

How the values were obtained:
[1] = target: T1, CaV2.2 (Homo sapiens, UniProt Q00975); test: High-throughput CaV2.2/Kir2.3 FLIPR fluorescent assay; format: cell-based; conditions: Fluo-4 FLIPR, closed or inactivated state not stated, read-out: FLIPR data CaV2.2
T1 construct: expressed in transfected cells; host or cells: unnamed doxycycline-inducible cell line
T1 sequence (Q00975 whole entry): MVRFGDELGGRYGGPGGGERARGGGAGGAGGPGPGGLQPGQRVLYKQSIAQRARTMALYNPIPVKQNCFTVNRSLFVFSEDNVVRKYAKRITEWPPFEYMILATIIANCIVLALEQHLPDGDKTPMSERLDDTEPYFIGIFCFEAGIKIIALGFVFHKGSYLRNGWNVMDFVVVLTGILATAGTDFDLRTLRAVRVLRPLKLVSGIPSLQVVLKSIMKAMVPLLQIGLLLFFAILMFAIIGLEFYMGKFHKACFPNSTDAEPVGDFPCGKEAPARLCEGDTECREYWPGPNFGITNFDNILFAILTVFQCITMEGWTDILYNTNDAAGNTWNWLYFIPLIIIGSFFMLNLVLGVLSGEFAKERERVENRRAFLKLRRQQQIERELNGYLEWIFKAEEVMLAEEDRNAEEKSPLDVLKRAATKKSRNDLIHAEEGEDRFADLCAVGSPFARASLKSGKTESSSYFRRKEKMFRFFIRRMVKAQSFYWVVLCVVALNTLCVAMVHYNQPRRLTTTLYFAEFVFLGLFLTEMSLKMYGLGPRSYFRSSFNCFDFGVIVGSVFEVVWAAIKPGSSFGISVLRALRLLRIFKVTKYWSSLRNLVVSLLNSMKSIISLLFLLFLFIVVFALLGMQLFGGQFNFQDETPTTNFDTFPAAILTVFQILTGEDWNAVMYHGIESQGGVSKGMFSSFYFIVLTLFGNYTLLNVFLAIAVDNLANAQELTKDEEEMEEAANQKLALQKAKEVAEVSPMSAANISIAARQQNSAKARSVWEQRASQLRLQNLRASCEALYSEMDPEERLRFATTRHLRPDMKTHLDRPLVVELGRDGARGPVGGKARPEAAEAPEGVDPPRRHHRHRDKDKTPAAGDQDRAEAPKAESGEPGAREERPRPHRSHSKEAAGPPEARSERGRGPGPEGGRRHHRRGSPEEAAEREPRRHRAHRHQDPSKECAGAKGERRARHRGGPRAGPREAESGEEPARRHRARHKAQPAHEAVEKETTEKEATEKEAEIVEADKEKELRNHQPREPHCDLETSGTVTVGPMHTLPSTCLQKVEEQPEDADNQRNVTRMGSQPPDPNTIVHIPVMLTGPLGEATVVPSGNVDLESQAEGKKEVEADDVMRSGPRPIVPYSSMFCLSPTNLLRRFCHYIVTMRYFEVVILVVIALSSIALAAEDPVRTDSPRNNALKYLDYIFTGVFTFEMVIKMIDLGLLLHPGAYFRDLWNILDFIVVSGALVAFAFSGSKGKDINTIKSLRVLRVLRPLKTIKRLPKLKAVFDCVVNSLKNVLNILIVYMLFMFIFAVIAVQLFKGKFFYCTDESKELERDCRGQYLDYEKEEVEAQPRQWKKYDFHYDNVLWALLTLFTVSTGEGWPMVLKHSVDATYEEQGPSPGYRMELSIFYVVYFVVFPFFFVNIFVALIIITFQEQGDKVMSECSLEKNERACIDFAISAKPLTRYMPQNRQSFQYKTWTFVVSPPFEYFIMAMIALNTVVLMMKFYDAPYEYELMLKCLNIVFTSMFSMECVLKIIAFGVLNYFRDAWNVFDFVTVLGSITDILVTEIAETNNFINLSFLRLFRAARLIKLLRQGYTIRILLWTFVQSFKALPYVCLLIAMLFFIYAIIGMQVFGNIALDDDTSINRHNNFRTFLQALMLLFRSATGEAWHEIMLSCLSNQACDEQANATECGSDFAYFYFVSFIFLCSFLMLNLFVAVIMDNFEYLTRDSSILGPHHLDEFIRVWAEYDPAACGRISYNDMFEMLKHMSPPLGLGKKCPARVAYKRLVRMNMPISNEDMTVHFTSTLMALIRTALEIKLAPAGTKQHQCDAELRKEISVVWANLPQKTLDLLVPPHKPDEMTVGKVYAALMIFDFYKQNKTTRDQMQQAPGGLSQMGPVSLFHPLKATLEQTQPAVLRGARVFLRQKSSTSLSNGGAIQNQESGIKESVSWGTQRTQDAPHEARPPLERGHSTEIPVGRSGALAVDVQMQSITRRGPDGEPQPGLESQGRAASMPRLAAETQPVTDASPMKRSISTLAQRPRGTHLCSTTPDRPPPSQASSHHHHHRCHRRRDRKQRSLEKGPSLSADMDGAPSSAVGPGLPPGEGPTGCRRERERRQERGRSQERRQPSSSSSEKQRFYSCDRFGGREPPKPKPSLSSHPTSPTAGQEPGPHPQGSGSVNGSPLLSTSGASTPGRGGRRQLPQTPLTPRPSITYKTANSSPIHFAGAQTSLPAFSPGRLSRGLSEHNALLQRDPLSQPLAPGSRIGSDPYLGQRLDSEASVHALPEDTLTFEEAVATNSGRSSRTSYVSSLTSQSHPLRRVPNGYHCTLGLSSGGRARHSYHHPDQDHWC
T1 sequence (P54284 whole entry partner): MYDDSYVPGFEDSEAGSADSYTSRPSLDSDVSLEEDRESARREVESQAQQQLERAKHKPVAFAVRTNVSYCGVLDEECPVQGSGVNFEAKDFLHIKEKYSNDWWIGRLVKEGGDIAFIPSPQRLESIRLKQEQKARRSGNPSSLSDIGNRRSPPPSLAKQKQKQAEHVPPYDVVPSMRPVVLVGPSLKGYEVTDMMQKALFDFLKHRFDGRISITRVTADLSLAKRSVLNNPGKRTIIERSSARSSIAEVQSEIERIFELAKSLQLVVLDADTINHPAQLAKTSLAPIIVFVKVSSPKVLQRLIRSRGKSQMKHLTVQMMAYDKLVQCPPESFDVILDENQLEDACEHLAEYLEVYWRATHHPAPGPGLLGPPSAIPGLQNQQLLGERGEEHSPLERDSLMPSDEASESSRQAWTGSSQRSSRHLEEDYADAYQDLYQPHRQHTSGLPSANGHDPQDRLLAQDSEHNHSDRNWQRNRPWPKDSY
T1 sequence (P54289 25-946 partner limits assumed): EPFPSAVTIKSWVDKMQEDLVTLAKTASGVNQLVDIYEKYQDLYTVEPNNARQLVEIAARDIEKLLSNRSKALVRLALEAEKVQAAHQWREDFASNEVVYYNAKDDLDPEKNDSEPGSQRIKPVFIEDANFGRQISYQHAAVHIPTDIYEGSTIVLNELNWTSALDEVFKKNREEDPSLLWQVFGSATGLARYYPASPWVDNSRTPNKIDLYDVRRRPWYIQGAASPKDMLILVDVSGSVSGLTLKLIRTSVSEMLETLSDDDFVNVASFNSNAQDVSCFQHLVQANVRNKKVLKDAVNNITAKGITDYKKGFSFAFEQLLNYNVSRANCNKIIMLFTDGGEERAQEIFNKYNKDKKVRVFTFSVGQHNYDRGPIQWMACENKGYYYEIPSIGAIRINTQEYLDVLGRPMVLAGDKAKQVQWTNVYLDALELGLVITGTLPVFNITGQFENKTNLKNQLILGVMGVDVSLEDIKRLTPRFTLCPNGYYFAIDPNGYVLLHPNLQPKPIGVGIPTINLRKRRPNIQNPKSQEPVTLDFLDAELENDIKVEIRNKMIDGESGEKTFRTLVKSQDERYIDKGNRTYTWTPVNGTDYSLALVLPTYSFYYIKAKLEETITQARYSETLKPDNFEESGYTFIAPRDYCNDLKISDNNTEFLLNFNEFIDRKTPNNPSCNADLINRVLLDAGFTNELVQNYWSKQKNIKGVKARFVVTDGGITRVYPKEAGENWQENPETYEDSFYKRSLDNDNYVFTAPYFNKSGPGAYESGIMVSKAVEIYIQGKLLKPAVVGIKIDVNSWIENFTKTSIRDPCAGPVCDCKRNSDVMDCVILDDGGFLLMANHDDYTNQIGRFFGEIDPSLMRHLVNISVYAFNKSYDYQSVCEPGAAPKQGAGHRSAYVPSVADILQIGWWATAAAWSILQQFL
T1 sequence (P54289 947-1103 partner limits assumed): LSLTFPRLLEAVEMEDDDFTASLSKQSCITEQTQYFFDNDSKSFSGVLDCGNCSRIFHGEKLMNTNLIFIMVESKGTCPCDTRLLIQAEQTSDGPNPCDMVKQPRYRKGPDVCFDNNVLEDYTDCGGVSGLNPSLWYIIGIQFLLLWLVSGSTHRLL
Outline: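 Doxycycline-induced cells moved to 29 °C on assay day and were loaded with 4.4 μM Fluo-4. They were held in 2 mM KCl (closed state) or 12.5 mM KCl (inactivated state) buffer, pH 7.4, then depolarized with 130 mM KCl. Fluorescence was read 3 min on FLIPR, and IC50 was obtained from logistic fits.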

[2] = target: T2, CaV3.2 (Homo sapiens, UniProt O95180); test: High-throughput CaV3.2/Kir2.3 T-type FLIPR fluorescent assay; format: cell-based; conditions: Fluo-4 FLIPR, closed or inactivated state not stated
T2 construct: expressed in transfected cells; host or cells: unnamed doxycycline-inducible cell line
Procedure: Cells were plated in 384-well, clear-bottom, black-walled, poly-D-lysine coated plates (Becton Dickinson, Franklin Lake, N.J.) 2 days prior to use in the FLIPR assay. 100 µL of cells (1.2×10^6 cell/mL) containing doxycyline (Sigma-Aldrich, 1.5 μg/mL; to induce channel expression) were added to each well using a Multidrop (Thermo Scientific, Waltham, Mass.) and were maintained in 5% CO2 incubator at 37° C. On the morning of the assay, cells were transferred to a 5% CO2 incubator at 29° C.
Cells were washed with a wash buffer containing (in mM): 118 NaCl, 18.4 HEPES, 11.7 D-glucose, 2 CaCl2, 0.5 MgSO4, 4.7 KCl, and 1.2 KH2PO4, with the pH adjusted to 7.2 with
NaOH. 4.4 μM of the fluorescent indicator dye Fluo-4 (Invitrogen) prepared in pluronic acid (Sigma-Aldrich) was loaded into the wells and incubated for 45 minutes at 29° C. in 5% CO2. Cells were then rinsed with either a 2 mM KCl closed-state buffer (in mM: 138.5 NaCl, 10 HEPES, 10 D-glucose, 1 CaCl2, and 2 KCl, with the pH adjusted to 7.4 with NaOH) when performing the closed-state assay or 7.6 mM KCl inactivated-state buffer (in mM: 130.9 NaCl, 10 HEPES, 10 D-glucose, 1 CaCl2, and 7.6 mM KCl, with the pH adjusted to 7.4 with NaOH) when performing the inactivated-state assay. Concentration-dependent response curves were generated from 5 mM stock solutions prepared in DMSO (Sigma-Aldrich), diluted in either the 2 mM KCl buffer or 7.6 mM KCl buffer, and incubated for 20 minutes at 29° C. in 5% CO2. Calcium entry was evoked with an addition of either 12 mM KCl stimulation buffer (in mM: 128.5 NaCl, 10 HEPES, 10 D-glucose, 1 CaCl2, and 12 KCl, with the pH adjusted to 7.4 with NaOH) or 14.5 mM KCl stimulation buffer (in mM: 126 NaCl, 10 HEPES, 10 D-glucose, 1 CaCl2, and 14.5 KCl, with the pH adjusted to 7.4 with NaOH) for the closed-state or inactivated-state assay respectively. A change in the Fluo-4 fluorescence signal was assessed using FLIPR^TETRA™ instrument (Molecular Devices, Sunnyvale, Calif.) for 3 minutes following the elevation of extracellular KCl using an illumination wavelength of 470-495 nm with emissions recorded at 515-575 nm.
Concentration-dependent response curves were obtained by comparing the fluorescence signal in the presence of compound and fitted with a logistic function (1) to obtain the concentration that inhibited 50% (IC50) of the RLU signal using OriginPro v.7.5 software (OriginLab, Northampton, Mass.).
To assess the quality of the FLIPR assays the Z-factor (2) was used to quantify the suitability of the assay conditions using the following equation: […]
Data are expressed as mean and standard deviation (SD).

Compound	IC50 ([1]; Table 5) [nM]	IC50 ([2]; Table 5) [nM]	IC50 ([1]; Table 4) [nM]	IC50 ([2]; Table 4) [nM]
CC(C)(CNC(=O)c1ccnc(N2CCCC2)c1)S(=O)(=O)c1cccc(C(F)(F)F)c1 [Compound 161, N-(2-methyl-2-((3-(trifluoromethyl)phenyl)sulfonyl)propyl)-2-(pyrrolidin-1-yl)isonicotinamide]	1120	8220	–	–
CC(C)(C(=O)NCc1cccnc1Oc1ccc(F)cc1)S(=O)(=O)c1cccc(C(F)(F)F)c1 [Compound 146, N-((2-(4-fluorophenoxy)pyridin-3-yl)methyl)-2-methyl-2-((3-(trifluoromethyl)phenyl)sulfonyl)propanamide]	440	7210	–	–
NC1(CC(=O)NCc2ccc(S(=O)(=O)c3cccc(C(F)(F)F)c3)cc2)CCCCC1 [Compound 86, 2-(1-aminocyclohexyl)-N-(4-((3-(trifluoromethyl)phenyl)sulfonyl)benzyl)acetamide]	–	–	310	5500
O=C(CCC(F)(F)F)NCc1ccc(S(=O)(=O)c2cccc(C(F)(F)F)c2)cc1 [Compound 53, 4,4,4-trifluoro-N-(4-((3-(trifluoromethyl)phenyl)sulfonyl)benzyl)butanamide]	–	–	340	4100
O=C1c2ccc(C(F)(F)F)nc2CN1Cc1ccccc1S(=O)(=O)c1cccc(C(F)(F)F)c1 [Compound 58, 2-(trifluoromethyl)-6-(2-((3-(trifluoromethyl)phenyl)sulfonyl)benzyl)-6,7-dihydro-5H-pyrrolo[3,4-b]pyridin-5-one]	–	–	2680	1480
O=C(NCc1ccc(S(=O)(=O)c2cccc(C(F)(F)F)c2)cn1)c1ccnc(C(F)(F)F)n1 [Compound 98, 2-(trifluoromethyl)-N-((5-((3-(trifluoromethyl)phenyl)sulfonyl)pyridin-2-yl)methyl)pyrimidine-4-carboxamide]	–	–	1490	9160
O=C(NCc1ccc(S(=O)(=O)c2cccc(C(F)(F)F)c2)cn1)c1cnc(C(F)(F)F)nc1 [Compound 97, 2-(trifluoromethyl)-N-((5-((3-(trifluoromethyl)phenyl)sulfonyl)pyridin-2-yl)methyl)pyrimidine-5-carboxamide]	–	–	1930	4170
O=C(NCc1ccccc1S(=O)(=O)c1cccc(C(F)(F)F)c1)c1cn2cc(C(F)(F)F)ccc2n1 [Compound 51, 6-(trifluoromethyl)-N-(2-((3-(trifluoromethyl)phenyl)sulfonyl)benzyl)imidazo[1,2-a]pyridine-2-carboxamide]	–	–	1230	1050
NC1(C(=O)NCc2ccc(S(=O)(=O)c3cccc(C(F)(F)F)c3)cc2)CCC2(CC1)OCCO2 [Compound 83, 8-amino-N-(4-((3-(trifluoromethyl)phenyl)sulfonyl)benzyl)-1,4-dioxaspiro[4.5]decane-8-carboxamide]	–	–	1310	9220
COc1ccc(C(=O)NCC(C)(C)S(=O)(=O)c2cccc(C(F)(F)F)c2)cc1Cl [Compound 160, 3-chloro-4-methoxy-N-(2-methyl-2-((3-(trifluoromethyl)phenyl)sulfonyl)propyl)benzamide]	1020	3990	–	–
O=C(NCc1ccc(S(=O)(=O)c2cccc(C(F)(F)F)c2)cn1)[C@H]1C[C@@H](O)CN1 [Compound 106, (2R,4R)-4-hydroxy-N-((5-((3-(trifluoromethyl)phenyl)sulfonyl)pyridin-2-yl)methyl)pyrrolidine-2-carboxamide]	–	–	5850	–
CC(C)(CNC(=O)c1ccc(F)cc1Cl)S(=O)(=O)c1cccc(C(F)(F)F)c1 [Compound 159, 2-chloro-4-fluoro-N-(2-methyl-2-((3-(trifluoromethyl)phenyl)sulfonyl)propyl)benzamide]	1320	–	–	–
CC(C)(C(=O)N1Cc2ccncc2C1)S(=O)(=O)c1cccc(C(F)(F)F)c1 [Compound 148, 2-methyl-1-(1H-pyrrolo[3,4-c]pyridin-2(3H)-yl)-2-((3-(trifluoromethyl)phenyl)sulfonyl)propan-1-one]	10000	–	–	–
O=C(NCc1ccccc1S(=O)(=O)c1cccc(C(F)(F)F)c1)c1cnc(C(F)(F)F)nc1 [Compound 45, 2-(trifluoromethyl)-N-(2-((3-(trifluoromethyl)phenyl)sulfonyl)benzyl)pyrimidine-5-carboxamide]	–	–	1110	–

Second part, the molecule after the results:

IC50 ([1]; Table 5) [nM]	IC50 ([2]; Table 5) [nM]	IC50 ([1]; Table 4) [nM]	IC50 ([2]; Table 4) [nM]	Compound
3190	5320	–	–	CC(C)(CNC(=O)c1ccc(C(F)(F)F)nc1)S(=O)(=O)c1cccc(C(F)(F)F)c1 [Compound 175, N-(2-methyl-2-((3-(trifluoromethyl)phenyl)sulfonyl)propyl)-6-(trifluoromethyl)nicotinamide]
1310	9680	–	–	COc1ccc(S(=O)(=O)N2CCOCC2)cc1C(=O)NCC(C)(C)S(=O)(=O)c1cccc(C(F)(F)F)c1 [Compound 166, 2-methoxy-N-(2-methyl-2-((3-(trifluoromethyl)phenyl)sulfonyl)propyl)-5-(morpholinosulfonyl)benzamide]
1310	5340	–	–	CC(C)(CNC(=O)c1cncc(C(F)(F)F)c1)S(=O)(=O)c1cccc(C(F)(F)F)c1 [Compound 176, N-(2-methyl-2-((3-(trifluoromethyl)phenyl)sulfonyl)propyl)-5-(trifluoromethyl)nicotinamide]
1530	6500	–	–	CC(C)(CNC(=O)c1ccc(Cl)cc1)S(=O)(=O)c1cccc(C(F)(F)F)c1 [Compound 165, 4-chloro-N-(2-methyl-2-((3-(trifluoromethyl)phenyl)sulfonyl)propyl)benzamide]
1020	5160	–	–	Cc1cc(Cl)ccc1C(=O)NCC(C)(C)S(=O)(=O)c1cccc(C(F)(F)F)c1 [Compound 168, 4-chloro-2-methyl-N-(2-methyl-2-((3-(trifluoromethyl)phenyl)sulfonyl)propyl)benzamide]
420	5540	–	–	CC(C)(CCN1Cc2nc(C(F)(F)F)ccc2C1=O)S(=O)(=O)c1cccc(C(F)(F)F)c1 [Compound 188, 6-(3-methyl-3-((3-(trifluoromethyl)phenyl)sulfonyl)butyl)-2-(trifluoromethyl)-6,7-dihydro-5H-pyrolo[3,4-b]pyridine-5-one]
10000	–	–	–	CC(C)(CCNC(=O)C1(N)CC1)S(=O)(=O)c1cccc(C(F)(F)F)c1 [Compound 202, 1-amino-N-(3-methyl-3-((3-(trifluoromethyl)phenyl)sulfonyl)butyl)cyclopropanecarboxamide]
1680	–	–	–	CC(C)(CCNC(=O)[C@H]1CCCC[C@H]1N)S(=O)(=O)c1cccc(C(F)(F)F)c1 [Compound 209, (1S,2R)-2-amino-N-(3-methyl-3-((3-(trifluoromethyl)phenyl)sulfonyl)butyl)cyclohexanecarboxamide]
1240	–	–	–	CC(C)(CNC(=O)c1ccnc(C(F)(F)F)c1)S(=O)(=O)c1cccc(C(F)(F)F)c1 [Compound 179, N-(2-methyl-2-((3-(trifluoromethyl)phenyl)sulfonyl)propyl)-2-(trifluoromethyl)isonicotinamide]
3040	–	–	–	CC(C)(CCNC(=O)c1ccccc1S(C)(=O)=O)S(=O)(=O)c1cccc(C(F)(F)F)c1 [Compound 192, N-(3-methyl-3-((3-(trifluoromethyl)phenyl)sulfonyl)butyl)-2-(methylsulfonyl)benzamide]
1100	–	–	–	CC(C)S(=O)(=O)c1cccnc1C(=O)NCCC(C)(C)S(=O)(=O)c1cccc(C(F)(F)F)c1 [Compound 211, 3-(isopropylsulfonyl)-N-(3-methyl-3-((3-(trifluoromethyl)phenyl)sulfonyl)butyl)picolinamide]
1360	–	–	–	CC(C)(CCNC(=O)c1ccc(S(C)(=O)=O)cc1Cl)S(=O)(=O)c1cccc(C(F)(F)F)c1 [Compound 189, 2-chloro-N-(3-methyl-3-((3-(trifluoromethyl)phenyl)sulfonyl)butyl)-4-(methylsulfonyl)benzamide]
